Laboratory results taken from US20060234960A1, “Methods and compositions for increasing the safety and efficacy of albumin-binding drugs” (priority 2005, published 2006).

Experiments:
human serum albumin [1] = target: T1, human serum albumin (Homo sapiens, UniProt P02768); conditions: Topotecan alone, comparison for Camptothecin with Salus agent; cited from earlier work
[2] = whole human blood; cited from earlier work
[3] = system: human MDA-MB-435S breast carcinoma cell line; test: Cytotoxicity for breast cancer cells (MDA-MB-435S), XTT; assay type: cell-based; conditions: for ability to kill breast cancer cells in the presence of Salus (301): FIGS. 9-13, with vs without Salus agent
Experimental: To further validate the concept in vitro studies using human breast cell carcinoma line and clinically approved blood concentrations of both clofibrate (301) and 10-hydroxycamptothecin were performed. FIG. 9 graphs the results GI 50 below. […] Additionally at clinically approved concentrations of both drugs in the presence of blood concentrations of human serum albumin, without Salus, approximately 33% of the cells were surviving at the end of the test vs. approximately 2%.
(§1) We have decided to use the human MRC-5 lung fibroblast cell line to test IC50 of 10-hydroxycamptothecin (10-HC) in the absence and presence of Salus™ 301. The ED50 values were determined with human MDA-MB-435S breast carcinoma cell line.
Cytotoxicity of DRUG for Breast Cancer Cells (MDA-MB-435S)
• 1. Count number of cells in flask. The final concentration of cells in each well should be between 5000-40000 cells/well (100,000-800,000 cells/ml). Dilute cells to proper concentration using Leibovitz's L-15 supplemented with 10% FBS and 0.1% insulin. Add 100 μl of cells into the microplate using repeating pipette. Be sure to vortex tube before adding to plate. Allow plate to incubate for 24 hours at 37° C. (Note: wells A1-H1, A1-H11 will contain only medium for evaporation purposes. Well A2 will contain no cells, only medium and will be used in experiment.) • Medium: Leibovitz's L-15 medium. • 2. Albumin: • Make 60 mg/ml in HSA (900 mg HSA+13.3 ml medium). Use Sigma HSA A-8763 • Make 5 ml of 60 mg/ml HSA with 2 mM 301 (2.33 mg 301 for 5.4 ml HSA). • Make 1 ml of 2 mM 301 in medium (0.53 mg in 1.23 ml medium). Dilute 200 μl in 200 μl medium to make 1 mM 301. • Make DRUG stock in DMSO Stock molarity=1000× conc. of highest test sample (ex. if 2 μM is needed, then stock needs to be 2 mM.) This will vary with each drug based on dosage of drug. For Cancer Cells, the highest concentration should be 1-2 times greater than the dosage for the drug. • 3. Make the test concentrations in advance of testing (5-24 hours prior to testing): The test concentrations will be made at double the concentration, 100 μl will be added into the 100 μl of the cells, making the final concentrations the same as those shown on the microplate chart. Change medium in plate (using the L-15 supplemented with 10% FBS and 0.1% insulin prior to loading test concentrations. • 100% cells: 100 μl of medium • medium: 100 μl of medium • 0.5 mM 301: add 100 μl of 1 mM 301 made in medium • 0.5 mM 301 with HSA: add 100 μl of 1 mM 301 with 30 mg/ml HSA • 1 mM 301: add 100 μl of 2 mM 301 made in medium • 1 mM 301 with HSA: add 100 μl of 2 mM 301 with 30 mg/ml HSA • 30 mg/ml HSA: add 100 μl of 60 mg/ml HSA made in medium (2 wells) • Dosage of DRUG: make a 1:500 dilution, using medium as the diluent. Make 2-fold serial dilutions into 300 μl of medium (600 μl total volume). Be sure to make dilutions before adding into wells. • 30×HSA & Dosage DRUG: Follow same serial dilution procedure as above with the DRUG, but the diluent should be medium +60 mg/ml HSA • 30×HSA, 0.5 mM 301 & DRUG: Follow same serial dilution procedure as above with the DRUG, but the diluent should be medium +60 mg/ml HSA with 1 mM 301 • 30×HSA, 1 mM 301 & 2 μM DRUG: Follow same serial dilution procedure as above with the DRUG, but the diluent should be medium +60 mg/ml HSA with 2 mM 301. • Allow these to incubate at 37° C. overnight. After the microplate has been incubating for 24 hours, add the above test concentrations into the appropriate well (see Chart for microplate information). Allow plate to incubate an additional 48 hours. After 48 Hours: • 4. Under sterile hood, reconstitute the XTT vial with 5 ml of medium. • 5. Remove all liquid from wells. Wash with medium, remove, then fill wells with 200 μl of fresh medium. • 6. Add 40 μl of XTT to all wells. • 7. Allow wells to incubate 2 hours. • 8. Read the plate in the microplate reader using a 655 nm reading as a reference wavelength. The read at 450 nm. Subtract the 655 nm reading from the 450 reading. […]

human serum albumin [4] = target: T1, human serum albumin
Description: Salus™ Drug Combinatorial Agents were identified using the CADEX knowledge base.

[5] = system: human MRC-5 lung fibroblast cell line; test: IC50 in human MRC-5 lung fibroblast cell line (in vitro toxicity); assay type: cell-based; conditions: best case scenario
Description: Therapeutic index is defined as the ratio of the median lethal dose (LD50) to the median effective dose (ED50). […] While animal tests are at best only about 65 percent predictive of human acute toxicity, a combination of four cell tests can determine of a substance is dangerous to humans with better than 80 percent precision.
as §1

[6] = murine vs human blood; cited from earlier work
brain cancer = conditions: cited from earlier work
human serum albumin [7] = target: T1, human serum albumin; test: X-ray structure of human serum albumin complexes (binding site); conditions: X-ray crystallography
[8] = system: human cancer xenografts lines; conditions: immunodeficient (nude) mice; cited from earlier work
human serum albumin [9] = target: T1, human serum albumin; conditions: carboxylate vs lactone form; cited from earlier work

T1 sequence (P02768 25-609): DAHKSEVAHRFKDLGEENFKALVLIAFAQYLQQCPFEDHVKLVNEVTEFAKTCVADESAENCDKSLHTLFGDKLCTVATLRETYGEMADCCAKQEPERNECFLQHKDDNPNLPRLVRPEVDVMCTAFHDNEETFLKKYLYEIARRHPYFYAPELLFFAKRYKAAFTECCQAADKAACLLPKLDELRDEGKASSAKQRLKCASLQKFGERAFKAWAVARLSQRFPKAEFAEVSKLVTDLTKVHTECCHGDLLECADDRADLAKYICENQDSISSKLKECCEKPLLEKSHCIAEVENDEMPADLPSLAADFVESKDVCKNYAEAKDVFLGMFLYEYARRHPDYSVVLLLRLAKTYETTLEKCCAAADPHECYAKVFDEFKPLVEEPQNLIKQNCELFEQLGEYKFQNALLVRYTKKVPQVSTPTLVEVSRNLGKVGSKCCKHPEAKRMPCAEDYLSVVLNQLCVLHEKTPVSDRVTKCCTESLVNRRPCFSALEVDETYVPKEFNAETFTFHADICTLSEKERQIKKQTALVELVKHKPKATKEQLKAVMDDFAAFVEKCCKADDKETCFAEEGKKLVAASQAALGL

## CC[C@@]1(O)C(=O)OCc2c1cc1n(c2=O)Cc2cc3c(CN(C)C)c(O)ccc3nc2-1 [Topotecan]
Human serum albumin [1]
  level of active lactone form (comparison value): 12%
[2]
  drug remaining in the lactone form at equilibrium: 11.9%
[3]
  ability to kill breast cancer cells in the presence of Salus (301): improvement

## CC[C@@]1(O)C(=O)OCc2c1cc1n(c2=O)Cc2cc3c([N+](=O)[O-])cccc3nc2-1 [9-nitro-Camptothecin]
Human serum albumin [4]
  increase of active lactone form with the selected Salus agent: Equally dramatic results

## CC[C@@]1(O)C(=O)OCc2c1cc1n(c2=O)Cc2cc3cc(O)ccc3nc2-1 [10-HC, 10-hydroxycamptothecin]
Human serum albumin [4]
  increase of active lactone form with the selected Salus agent: Equally dramatic results
[5]; with 0.5 mM 301
  IC50: 6 µM
[5]; with 1.0 mM 301
  IC50: 3.3 µM
[5]; without 301
  IC50: 6.78 µM
[3]
  ability to kill breast cancer cells in the presence of Salus (301): improvement
[3]; with Salus (clofibrate, 301), clinically approved concentrations of both drugs, blood concentrations of human serum albumin
  cells surviving at the end of the test: approximately 2%
[3]; with clofibrate (301) vs without, blood concentrations of human serum albumin
  improvement in the GI 50 values: approximately 16 fold
[3]; without Salus, clinically approved concentration, blood concentrations of human serum albumin
  cells surviving at the end of the test: approximately 33%

## CC[C@@]1(O)C(=O)OCc2c1cc1n(c2=O)Cc2cc3c(N)cccc3nc2-1 [9-aminocamptothecin]
[6]
  lactone levels in murine blood relative to human blood: approximately 100 fold
Brain cancer; 99 brain cancer patients, intravenous
  efficacy of therapy: grossly ineffective
Brain cancer; patients treated intravenously, stated as likelihood
  drug in the carboxylate form: 99.5%
[2]
  drug remaining in the lactone form at equilibrium: 0.5%

## CC[C@@]1(O)C(=O)OCc2c1cc1n(c2=O)Cc2cc3ccccc3nc2-1 [Camptothecin]
Human serum albumin [7]
  binding location on human serum albumin: distinct pocket within IB subdomain
[8]
  number of human cancer xenografts lines in which effective: more than 13
[2]
  drug remaining in the lactone form at equilibrium: 5.3%
Human serum albumin [9]
  enhancement in affinity for HSA of carboxylate form over lactone form: 150 fold

## CCc1c2c(nc3ccc(O)cc13)-c1cc3c(c(=O)n1C2)COC(=O)[C@]3(O)CC [SN-38]
[2]
  drug remaining in the lactone form at equilibrium: 19.5%

## COc1cccc2c1C(=O)c1c(O)c3c(c(O)c1C2=O)C[C@@](O)(C(=O)CO)C[C@@H]3O[C@H]1C[C@H](N)[C@@H](O)[C@H](C)O1 [Epirubicin]
[3]
  ability to kill breast cancer cells in the presence of Salus (301): improvement

## COc1cc([C@@H]2c3cc4c(cc3[C@@H](O[C@@H]3O[C@@H]5CO[C@@H](c6cccs6)O[C@H]5[C@H](O)[C@H]3O)[C@H]3COC(=O)[C@H]23)OCO4)cc(OC)c1O [Teniposide]
[3]
  ability to kill breast cancer cells in the presence of Salus (301): improvement

## COc1cccc2c1C(=O)c1c(O)c3c(c(O)c1C2=O)C[C@@](O)(C(=O)CO)C[C@@H]3O[C@H]1C[C@H](N)[C@H](O)[C@H](C)O1 [Doxorubicin]
[3]
  ability to kill breast cancer cells in the presence of Salus (301): improvement
